Test results from PMC6154692, “Determination of Vancomycin in Human Serum by Cyclodextrin-Micellar Electrokinetic Capillary Chromatography (CD-MEKC) and Application for PDAP Patients” (Molecules : A Journal of Synthetic Chemistry and Natural …, 2017).

What was measured:
[1] = Stability of VCM in spiked human serum QC samples (bench-top, 30-day, autosampler, freeze-thaw), read by CD-MEKC; assay type: in vitro ADME; conditions: for Accuracy (%), autosampler stability / Accuracy (%), freeze–thaw stability / Accuracy (%), bench-top stability / Accuracy (%), 30-day stability: found vs initial concentration, CD-MEKC UV; for Accuracy (%), autosampler stability: 25 °C for 8 h; for Accuracy (%), autosampler stability / Accuracy (%), freeze–thaw stability / Accuracy (%), bench-top stability / Accuracy (%), 30-day stability / Measured Concentration (Mean ± SD), bench-top stability / Measured Concentration (Mean ± SD), autosampler stability / Measured Concentration (Mean ± SD), freeze–thaw stability / Measured Concentration (Mean ± SD), 30-day stability: n = 5; for Accuracy (%), freeze–thaw stability: three freeze–thaw cycles; for Accuracy (%), bench-top stability: 25 °C for 2 h; for Accuracy (%), 30-day stability: −80 °C, 30 days; for Measured Concentration (Mean ± SD), bench-top stability: ambient temperature (25 °C) for 2 h; for Measured Concentration (Mean ± SD), bench-top stability / Measured Concentration (Mean ± SD), autosampler stability / Measured Concentration (Mean ± SD), freeze–thaw stability / Measured Concentration (Mean ± SD), 30-day stability: CD-MEKC UV 210 nm; for Measured Concentration (Mean ± SD), autosampler stability: spiked human serum sample, kept at ambient temperature (25 °C) for 8 h; for Measured Concentration (Mean ± SD), freeze–thaw stability: after three freeze–thaw cycles; for Measured Concentration (Mean ± SD), 30-day stability: stored at −80 °C for 30 days
Method: Analyte stability determinations comprised short-term temperature stability (bench-top stability), long-term stability (30-day stability), autosampler stability, and freeze-thaw cycles stability, which were evaluated by analyzing three QC levels in VCM. The peak areas obtained from both stability tests were compared with the peak areas obtained with freshly prepared samples. The mean values and standard deviations of the ratios between the concentrations found and initial concentration were used for stability evaluation.
The BGE used in this study was 25 mM borate buffer with 50 mM SDS and 2% sulfobutyl-β-CD (pH 9.50). It was prepared by weighting appropriate amounts of Na2B4O7∙10H2O, SDS, and sulfobutyl-β-CD, followed by thoroughly mixing and dissolving with 100 mL deionized water. NaOH (1 mol/L) was used for adjusting pH to 9.50. BGE solutions were prepared freshly every day and filtered through a 0.45 μm hydrophilic cellulose membrane filter prior to use. The separation voltage was 15 kV (+) → (−). Hydrodynamic injection mode was performed at a pressure of 0.5 psi for 5 s. The capillary was conditioned by rinsing with 0.1 mol/L NaOH (1 min) followed by BGE (5 min) sequentially between the runs in order to maintain an active and reproducible inner surface.
Standard stock solution (1 mg/mL) of VCM and the IS were prepared in methanol. Working standard solutions (ranging from 10 to 500 µg/mL) were prepared daily by diluting the stock solution to the desired concentration with deionized water. The IS solution was prepared by deionized water at the concentration of 200 µg/mL. The standard solutions were stored in brown glass vials to protect from light at 4 °C. Calibration samples were obtained by diluting standard working solutions (10 μL) with drug-free human control serum (90 μL), to span a calibration standard range of 1–100 µg/mL for VCM. QC samples (3, 15, 80 µg/mL) were independently prepared by spiking an appropriate amount of the working standard solution in drug-free human control serum.
A simple and rapid sample preparation was applied by protein precipitation in SiroccoTM 96-well filtration plate (Waters Corp., Milford, MA, USA). Standard curve samples (100 μL), QC samples, and subject serum samples were added individually into 96-well plates by an eight-channel hand-held pipettor. To precipitate the serum protein, 200 μL ACN (acetonitrile) solution c ontaining 100 μg/mL of the IS solution was added to each sample (standards, QCs, and samples). Sirocco plates were capped and mixed by vortexing for 3 min and held for 15 min, subsequently placed on a vacuum manifold, and filtered to remove any precipitated material. The filtrate was collected into another 96-well plate and was evaporated to dryness with a nitrogen flow at 37 °C (TURBOVAP 96, Biotage, Uppsala, Sweden). All dry residues were reconstituted by the addition of 50 μL water. Finally, the plates were vortex mixed for 1 min, followed by centrifugation for 10 min at 12,000 rpm at 4 °C using a 5804 R Eppendorf refrigerated centrifuge (Hamburg, Germany). The supernatant was transferred to the autosampler for injection onto the CE.

PDAP patients = experiment: Clinical safety observation in PDAP patients treated with i.p. vancomycin; assay type: in vivo, human
Method: Patients were treated with intraperitoneal (i.p.) vancomycin (Vancocin, Eli Lilly) for 1.0 g every 5–7 days. Nine PDAP patients’ samples were collected, and the trough concentrations of VCM were measured. […] Side effects were not observed in patients who were treated with VCM. The 15–20 µg/mL range was determined in three samples (17.06 µg/mL, 15.39 µg/mL, and 19.25 µg/mL), which was reported as the effective treatment window. […] In view of patients’ residual renal function and peritoneal permeability, levels <15 µg/mL were found in four samples (12.88 µg/mL, 5.48 µg/mL, 8.90 µg/mL, and 9.30 µg/mL). ISPD recommends that re-dosing is appropriate once serum vancomycin levels go below 15 µg/mL.

[2] = set-up: method as in doi:10.1016/0378-5173(93)90252-B; conditions: cited from earlier work
Text: The pH value of BGE is an important factor in CE. VCM is a glycopeptide antibiotic with quite a complex structure. It contains six functional groups which participate in acid-base equilibria. Namely, its net charge in solution strongly depends on the solution pH. […] Protonations of amino (primary and secondary amino) and three phenolate groups take place between pH 13 and 5 in multiply overlapping stages. […] Owing to t ...

[3] = intraperitoneal, in the presence of peritonitis; ref guideline of ISPD; cited from earlier work
[4] = spiked human serum, HQC 80 µg/mL
[5] = spiked human serum, LQC 3 µg/mL
[6] = spiked human serum, MQC 15 µg/mL

Q: With CN[C@H](CC(C)C)C(=O)N[C@H]1C(=O)N[C@@H](CC(N)=O)C(=O)N[C@H]2C(=O)N[C@H]3C(=O)N[C@H](C(=O)N[C@H](C(=O)O)c4cc(O)cc(O)c4-c4cc3ccc4O)[C@H](O)c3ccc(c(Cl)c3)Oc3cc2cc(c3O[C@@H]2O[C@H](CO)[C@@H](O)[C@H](O)[C@H]2O[C@H]2C[C@](C)(N)[C@H](O)[C@H](C)O2)Oc2ccc(cc2Cl)[C@H]1O [VCM, vancomycin] as the compound, how does the “Stability in spiked serum samples (in words)” value ([1]; bench-top, 30-day, autosampler and freeze-thaw conditions, three QC levels) read?
A: stable

Q: What about the “Accuracy (%), autosampler stability” value ([1]; HQC 80 µg/mL) of the same compound?
A: 105.70%

Q: What about the “Accuracy (%), freeze–thaw stability” value ([1]; HQC 80 µg/mL) of the same compound?
A: 108.80%

Q: And the “Accuracy (%), autosampler stability” value ([1]; LQC 3 µg/mL)?
A: 103.80%

Q: And the “Accuracy (%), freeze–thaw stability” value ([1]; LQC 3 µg/mL)?
A: 110.40%

Q: What about the “Accuracy (%), autosampler stability” value ([1]; MQC 15 µg/mL) of the same compound?
A: 107.10%

Q: And the “Accuracy (%), freeze–thaw stability” value ([1]; MQC 15 µg/mL)?
A: 104.60%

Q: And the “Accuracy (%), bench-top stability” value [1, 4]?
A: 108.40%

Q: What about the “Accuracy (%), 30-day stability” value [1, 4] of the same compound?
A: 106.60%

Q: What about the “Accuracy (%), bench-top stability” value [1, 5] of the same compound?
A: 107.80%

Q: What about the “Accuracy (%), 30-day stability” value [1, 5] of the same compound?
A: 104.70%

Q: What about the “Accuracy (%), bench-top stability” value [1, 6] of the same compound?
A: 102.70%

Q: And the “Accuracy (%), 30-day stability” value [1, 6]?
A: 104.90%

Q: What about the “Measured Concentration (Mean ± SD), bench-top stability” value ([1]; spiked human serum (table title: plasma), LQC 3 µg/mL) of the same compound?
A: 3.271 ± 0.02 µg/mL

Q: And the “Measured Concentration (Mean ± SD), autosampler stability” value ([1]; HQC 80 µg/mL)?
A: 85.57 ± 0.29 µg/mL

Q: What about the “Measured Concentration (Mean ± SD), autosampler stability” value ([1]; LQC 3 µg/mL) of the same compound?
A: 3.15 ± 0.01 µg/mL

Q: What about the “Measured Concentration (Mean ± SD), autosampler stability” value ([1]; MQC 15 µg/mL) of the same compound?
A: 16.26 ± 0.09 µg/mL

Q: What about the “Measured Concentration (Mean ± SD), freeze–thaw stability” value [1, 4] of the same compound?
A: 88.01 ± 0.23 µg/mL

Q: And the “Measured Concentration (Mean ± SD), bench-top stability” value [1, 4]?
A: 87.69 ± 0.38 µg/mL

Q: And the “Measured Concentration (Mean ± SD), 30-day stability” value [1, 4]?
A: 86.24 ± 0.52 µg/mL

Q: What about the “Measured Concentration (Mean ± SD), freeze–thaw stability” value [1, 5] of the same compound?
A: 3.35 ± 0.02 µg/mL

Q: What about the “Measured Concentration (Mean ± SD), 30-day stability” value [1, 5] of the same compound?
A: 3.18 ± 0.01 µg/mL

Q: And the “Measured Concentration (Mean ± SD), freeze–thaw stability” value [1, 6]?
A: 15.88 ± 0.07 µg/mL

Q: And the “Measured Concentration (Mean ± SD), bench-top stability” value [1, 6]?
A: 15.59 ± 0.09 µg/mL

Q: And the “Measured Concentration (Mean ± SD), 30-day stability” value [1, 6]?
A: 15.92 ± 0.08 µg/mL

Q: And the Side effects (PDAP patients; PDAP patients treated with VCM, i.p. 1.0 g every 5–7 days)?
A: not observed

Q: What about the “Changes in renal function before and after treatment” value (PDAP patients; nine PDAP patients, i.p. vancomycin 1.0 g every 5–7 days) of the same compound?
A: No significant changes

Q: And the pI value [2]?
A: about 7.10

Q: What about the “Fraction of i.p. vancomycin absorbed” value [3] of the same compound?
A: approximately 90%
